The text below walks through data of US20230322846A9, “NEUROACTIVE STEROIDS AND THEIR METHODS OF USE” (SAGE THERAPEUTICS, INC., priority 2018, published 2023).

SMILES strings stand for the structures.

In this test the target is [35S]-TBPS binding, rat brain cortical membranes. Nature of the test: Steroid inhibition of [35S]-TBPS binding. The conditions noted are these: 3 nM [35S]-TBPS, in the presence of 5 mM GABA. The protocol:
[^35S]-t-Butylbicyclophosphorothionate (TBPS) binding assays using rat brain cortical membranes in the presence of 5 mM GABA has been described (Gee et al, J. Pharmacol. Exp. Ther. 1987, 241, 346-353; Hawkinson et al, Mol. Pharmacol. 1994, 46, 977-985; Lewin, A. H et al., Mol. Pharmacol. 1989, 35, 189-194).
Briefly, cortices are rapidly removed following decapitation of carbon dioxide-anesthetized Sprague-Dawley rats (200-250 g). The cortices are homogenized in 10 volumes of ice-cold 0.32 M sucrose using a glass/teflon homogenizer and centrifuged at 1500×g for 10 min at 4° C. The resultant supernatants are centrifuged at 10,000×g for 20 min at 4° C. to obtain the P2 pellets. The P2 pellets are resuspended in 200 mM NaCl/50 mM Na—K phosphate pH 7.4 buffer and centrifuged at 10,000×g for 10 min at 4° C. This washing procedure is repeated twice and the pellets are resuspended in 10 volumes of buffer. Aliquots ([…]) of the membrane suspensions are incubated with 3 nM [^35S]-TBPS and […] aliquots of test drug dissolved in dimethyl sulfoxide (DMSO) (final 0.5%) in the presence of 5 mM GABA. The incubation is brought to a final volume of 1.0 mL with buffer. Nonspecific binding is determined in the presence of […] and ranged from 15 to 25%. Following a 90 min incubation at room temp, the assays are terminated by filtration through glass fiber filters (Schleicher and Schuell No. 32) using a cell harvester (Brandel) and rinsed three times with ice-cold buffer. Filter bound radioactivity is measured by liquid scintillation spectrometry. Non-linear curve fitting of the overall data for each drug averaged for each concentration is done using Prism (GraphPad). […] The concentration of test compound producing 50% inhibition (IC50) of specific binding and the maximal extent of inhibition (Imax) are determined for the individual experiments with the same model used for the overall data and then the means±SEM.s of the individual experiments are calculated.
Various compounds are or can be screened to determine their potential as modulators of [^35S]-TBPS binding in vitro. These assays are or can be performed in accordance with the above

The term IC50 denotes the concentration needed to halve the response being measured. `COC[C@@]1(O)CC[C@H]2[C@H](CC[C@@H]3[C@@H]2CC[C@]2(C)[C@@H]([C@@H](C)Nc4ccc(C#N)cc4C)CC[C@@H]32)C1` [Example 252]: the IC50 was below 100 nM.
Under `CCC[C@@]1(O)CC[C@@]2(CC)[C@H](CC[C@H]3[C@@H]4CC[C@H]([C@H](C)Cn5cc(C#N)cn5)[C@@]4(C)CC[C@@H]32)C1` [Example 302, 1-((S)-2-((3R,5R,8S,9S,10S,13S,14S,17R)-10-ethyl-3-hydroxy-13-methyl-3-propylhexadecahydro-1H-cyclopenta[a]phenanthren-17-yl)propyl)-1H-pyrazole-4-carbonitrile] stands below 100 nM; under `COC[C@@]1(O)CC[C@H]2[C@H](CC[C@@H]3[C@@H]2CC[C@]2(C)[C@@H]([C@H](C)Nc4cccc(C#N)c4)CC[C@@H]32)C1` [Example 255], 1000 to 10000 nM.
For `CC[C@@]1(O)CC[C@H]2[C@H](CC[C@@H]3[C@@H]2CC[C@]2(C)[C@@H]([C@H](C)Cn4nccc4C#N)CC[C@@H]32)C1` [Example 274, 1-((S)-2-((3R,5R,8R,9R,10S,13S,14S,17R)-3-ethyl-3-hydroxy-13-methylhexadecahydro-1H-cyclopenta[a]phenanthren-17-yl)propyl)-1H-pyrazole-5-carbonitrile], the IC50 was 100 to 1000 nM.
For `CCOC[C@@]1(O)CC[C@H]2[C@H](CC[C@@H]3[C@@H]2CC[C@]2(C)[C@@H]([C@H](C)n4cc(C#N)cn4)CC[C@@H]32)C1` [Example 163, 1-((S)-1-((3R,5R,8R,9R,10S,13S,14S,17S)-3-(ethoxymethyl)-3-hydroxy-13-methylhexadecahydro-1H-cyclopenta[a]phenanthren-17-yl)ethyl)-1H-pyrazole-4-carbonitrile], the IC50 is 1000 to 10000 nM.
Consider `CN(C[C@H]1CC[C@H]2[C@@H]3CC[C@@H]4C[C@](C)(O)CC[C@@H]4[C@H]3CC[C@]12C)C(=O)c1ccccc1` [Example 2, N-(((3R,5R,8R,9R,10S,13S,14S,17S)-3-hydroxy-3,13-dimethylhexadecahydro-1H-cyclopenta[a]phenanthren-17-yl)methyl)-N-methylbenzamide], for which the IC50 is 100 to 1000 nM.
In the case of `CC[C@@]1(O)CC[C@@]2(C)[C@H](CC[C@@H]3[C@@H]2CC[C@]2(C)[C@@H]([C@H](C)Cn4ccc(C#N)n4)CC[C@@H]32)C1` [Example 62, 1-((S)-2-((3R,5R,8R,9S,10S,13S,14S,17R)-3-ethyl-3-hydroxy-10,13-dimethylhexadecahydro-1H-cyclopenta[a]phenanthren-17-yl)propyl)-1H-pyrazole-3-carbonitrile], the IC50 was below 100 nM.
As for `CC[C@@]1(O)CC[C@H]2[C@H](CC[C@@H]3[C@@H]2CC[C@]2(C)[C@@H]([C@@H](C)Cn4nccc4C#N)CC[C@@H]32)C1` [Example 273, 1-((R)-2-((3R,5R,8R,9R,10S,13S,14S,17R)-3-ethyl-3-hydroxy-13-methylhexadecahydro-1H-cyclopenta[a]phenanthren-17-yl)propyl)-1H-pyrazole-5-carbonitrile], the IC50 was below 100 nM.
Regarding `CCOC[C@@]1(O)CC[C@H]2[C@H](CC[C@@H]3[C@@H]2CC[C@]2(C)[C@@H]([C@@H](C)NS(=O)(=O)c4ccc(C#N)cc4)CC[C@@H]32)C1` [Example 67, 4-cyano-N—((R)-1-((3R,5R,8R,9R,10S,13S,14S,17S)-3-(ethoxymethyl)-3-hydroxy-13-methylhexadecahydro-1H-cyclopenta[a]phenanthren-17-yl)ethyl)benzenesulfonamide], the IC50 is below 100 nM.
With `Cc1cnc(C[C@@H](C)[C@H]2CC[C@H]3[C@@H]4CC[C@@H]5C[C@](C)(O)CC[C@@H]5[C@H]4CC[C@]23C)s1` [Example 431], the IC50 lay within 100 to 1000 nM.
The same measure for `C[C@H]([C@H]1CC[C@H]2[C@@H]3CC[C@@H]4C[C@](C)(O)CC[C@@H]4[C@H]3CC[C@]12C)N1CCc2cc(C#N)ccc2C1=O` [Example 45, 2-((R)-1-((3R,5R,8R,9R,10S,13S,14S,17S)-3-hydroxy-3,13-dimethylhexadecahydro-1H-cyclopenta[a]phenanthren-17-yl)ethyl)-1-oxo-1,2,3,4-tetrahydroisoguinoline-6-carbonitrile]: below 100 nM; for `CCC[C@@]1(O)CC[C@H]2[C@@H](CC[C@@H]3[C@@H]2CC[C@]2(C)[C@@H]([C@H](C)Cn4nnnc4C)CC[C@@H]32)C1` [Example 331, (3R,5S,8R,9R,10S,13S,14S,17R)-13-methyl-17-((S)-1-(5-methyl-1H-tetrazol-1-yl)propan-2-yl)-3-propylhexadecahydro-1H-cyclopenta[a]phenanthren-3-ol]: at least 10000 nM; for `COc1ccc(C(=O)N[C@@H](C)[C@H]2CC[C@H]3[C@@H]4CC[C@@H]5C[C@](C)(O)CC[C@@H]5[C@H]4CC[C@]23C)cc1` [Example 107]: 1000 to 10000 nM.
As for `COC[C@@]1(O)CC[C@H]2[C@H](CC[C@@H]3[C@@H]2CC[C@]2(C)[C@@H]([C@H](C)NC(=O)c4ccc(C#N)cn4)CC[C@@H]32)C1` [Example 32, 5-cyano-N—((S)-1-((3R,5R,8R,9R,10S,13S,14S,17S)-3-hydroxy-3-(methoxymethyl)-13-methylhexadecahydro-1H-cyclopenta[a]phenanthren-17-yl)ethyl)picolinamide], the IC50 fell in the range of 1000 to 10000 nM.
Take `CC[C@]12CC[C@@](C)(O)C[C@H]1CC[C@H]1[C@@H]3CC[C@H](C(C)Cn4cc(C#N)cn4)[C@@]3(C)CC[C@@H]12` (stereo in doubt) [Example 326, 1-((R)-2-((3R,5R,8S,9S,10S,13S,14S,17R)-10-ethyl-3-hydroxy-3,13-dimethylhexadecahydro-1H-cyclopenta[a]phenanthren-17-yl)propyl)-1H-pyrazole-4-carbonitrile]: the IC50 is below 100 nM.
With `Cc1cnc(C[C@@H](C)[C@H]2CC[C@H]3[C@@H]4CC[C@@H]5C[C@](C)(O)CC[C@@H]5[C@H]4CC[C@]23C)cn1` [Example 440], the IC50 was below 100 nM.
As to `C[C@H](Cn1cc(C#N)cn1)[C@H]1CC[C@H]2[C@@H]3CC[C@@H]4C[C@](C)(O)CC[C@]4(C)[C@H]3CC[C@]12C` [Example 306, 1-((S)-2-((3R,5R,8R,9S,10S,13S,14S,17R)-3-hydroxy-3,10,13-trimethylhexadecahydro-1H-cyclopenta[a]phenanthren-17-yl)propyl)-1H-pyrazole-4-carbonitrile], the IC50 was below 100 nM.
Take `CCOC[C@@]1(O)CC[C@H]2[C@H](CC[C@@H]3[C@@H]2CC[C@]2(C)[C@@H]([C@@H](C)N4Cc5cc(C#N)ccc5C4=O)CC[C@@H]32)C1` [Example 43, 2-((R)-1-((3R,5R,8R,9R,10S,13S,14S,17S)-3-(ethoxymethyl)-3-hydroxy-13-methylhexadecahydro-1H-cyclopenta[a]phenanthren-17-yl)ethyl)-1-oxoisoindoline-5-carbonitrile]: the IC50 is 100 to 1000 nM.
For the molecule `COC[C@@]1(O)CC[C@H]2[C@H](CC[C@@H]3[C@@H]2CC[C@]2(C)[C@@H]([C@H](C)NC(=O)c4ccc(OC(F)(F)F)cn4)CC[C@@H]32)C1` [Example 129], the IC50 lay within 100 to 1000 nM.
For the molecule `CCOC[C@@]1(O)CC[C@H]2[C@H](CC[C@@H]3[C@@H]2CC[C@]2(C)[C@@H]([C@H](C)Cn4ccnn4)CC[C@@H]32)C1` [Example 267, (3R,5R,8R,9R,10S,13S,14S,17R)-17-((S)-1-(1H-1,2,3-triazol-1-yl)propan-2-yl)-3-(ethoxymethyl)-13-methylhexadecahydro-11H-cyclopenta[a]phenanthren-3-ol], the IC50 was below 100 nM.
For `Cc1cc(C#N)ccc1N[C@@H]([C@H]1CC[C@H]2[C@@H]3CC[C@@H]4C[C@](C)(O)CC[C@@H]4[C@H]3CC[C@]12C)C(F)(F)F` [Example 489, 3-methyl-4-(((S)-2,2,2-trifluoro-1-((3R,5R,8R,9R,10S,13S,14S,17S)-3-hydroxy-3,13-dimethylhexadecahydro-1H-cyclopenta[a]phenanthren-17-yl)ethyl)amino)benzonitrile], the IC50 was in the range of 1000 to 10000 nM.
The same measure for `COC[C@@]1(O)CC[C@H]2[C@H](CC[C@@H]3[C@@H]2CC[C@]2(C)[C@@H]([C@@H](C)NC(=O)c4ccc(OC(F)(F)F)cn4)CC[C@@H]32)C1` [Example 128]: 100 to 1000 nM.
